Where “and” joins values, the source holds several entries; their conditions need not be identical. Equal entries are not always repeated. Where two headings read alike, the source gives them in different places.
Experiments:
Caco-2 cells [1] = experiment: Flow cytometric analysis of apoptosis (annexin V/PI); format: cell-based, human; conditions: IC50 doses, 72 h, annexin-stained, mean ± SEM
Protocol: Reverse: 5′-[…]-3′
5.4. Flow cytometric analysis of apoptosis […]
human colon cancer cell line (Caco-2) for 72 h, at their minimum IC50 doses. After trypsinization, the untreated and treated cancer cells were stained with fluorescein isothiocyanate (FITC)-annexin V/ propidium iodide (PI) for 15 min. After washing with PBS, the annexin-stained apoptotic population was quantified using flow cytometry at FITC signal detector (FL1) against the phycoerythrin emission signal detector (FL2).

caspase-3/7 [2] = experiment: Caspase-3/7 activation assay (ApoONE kit) in Caco-2 cells; format: cell-based, human; conditions: Caco-2 cells treated with IC50 doses; relative to untreated cells; mean ± SEM
Protocol: (§1) ApoONE® Caspase-3/7 kit was used following the manufacturer’s instructions (Supplementary data).
(§2) 5.2. Caspase-3/7 activation assay
(§3) The caspase 3/7 activation was assessed, as a key indicator in caspase-dependent apoptosis, using ApoONE® Caspase-3/7 kit following the manufacturer’s instructions. This kit used a nonfluorescence substrate […]
(§4) the generation of the fluorescence signals of Rhodamine 110. Thesesignal were measured at 490 nm excitation and 520 nm emission using the fluorescence microplate reader (BMG LabTech, Germany). […]

Bcl2 = experiment: RT-qPCR of Bcl2 expression in Caco-2 cells; format: cell-based, human; conditions: 0.06 µM for 72 h, mean ± SEM
Protocol: (§5) RNAs of untreated and treated cancer cells were extracted using Gene JET RNA purification kit (Thermo Scientific, USA). Then cDNAs were synthesized using cDNA Synthesis Kit (Thermo Scientific, USA). Real time PCR was performed using SYBR green master mix and specific primers (Forward/Reverse) as detailed in the supplementary data. […]
5.3. Real-time Quantitative PCR Analysis of Bcl2 […]
as §5, with “µM, for 72 h in 5% CO2 incubator. RNAs” for “RNAs”, “primers” for “primers (Forward/Reverse) as detailed in the supplementary data.”
The thermal cycling parameters were pre-denaturation, followed by 40 amplification cycles of 1 min at 95°C and 30 s at 60 °C and at 72°C for 30 sec. GAPDH mRNA was quantified to adjust the amount of mRNA in each sample. The 2−ΔΔCT equation was used to estimate change in gene expressions before and after treatment of cancer cells.
Table 1 primer sequences of the used genes

Wi-38 cells [3] = experiment: MTT cytotoxicity assay, normal human fibroblasts; format: cell-based; conditions: 72 h, mean ± SEM; for MNTC: dose at 100% cell viability, read-out: Wi-38 EC100
Protocol: (§6) Wi-38, Caco-2 and HepG-2 cells were cultured in DMEM medium-contained 10% FBS, seeded as 5 × 10^3 cells per well in 96-well cell culture plate and incubated at 37 °C in 5% CO2 incubator. After 24 h, serial concentrations of the test compounds were incubated with cells for 72 h. Cell viability was assayed via MTT protocol[27] (Supplementary data). IC50 values of the synthesized compounds were measured via the Graphpad Instat software. Morphological changes were examined using phase contrast inverted microscope with a digital camera (Olympus, Japan). […]
(§7) Normal human lung fibroblast Wi-38 cell line was used to detect cytotoxicity of the studied compounds.
Wi-38 cell line was cultured in DMEM medium-contained 10% fetal bovine serum (FBS), seeded as 5x10^3 cells per well in 96-well cell culture plate and incubated at 37 °C in 5% CO2 incubator. After 24 h for cell attachment, serial concentrations of the synthetic compounds and standard chemotherapy (5-fluorouracil) were incubated with Wi-38 cells for 72 h. Cell viability was assayed by MTT method Twenty microliters of 5 mg/ml MTT (Sigma, USA) was added to each well and the plate was incubated at 37 °C for 3 h. Then MTT solution was removed, 100 µl DMSO was added, and the absorbance of each well was measured with a microplate reader (BMG LabTech, Germany) at 570 nm. The dose (EC50 and EC100) values (at 50% and100% cell viability, respectively) of the tested compounds was estimated by the Graphpad Instat software. […]

caspase-3/7 [4] = experiment: Caspase-3/7 activation assay (ApoONE kit) in HepG-2 cells; format: cell-based, human; conditions: HepG-2 cells treated with IC50 doses; relative to untreated cells; mean ± SEM
Protocol: as §1, §2, §3, §4

Caco-2 cells [5] = experiment: MTT cytotoxicity assay, colorectal cancer cells; format: cell-based, human; conditions: for SI against the screened cell lines: Caco-2 and HepG-2 cells versus Wi-38; for IC50: Homo sapiens; for Caco-2 LE: LE = 1.37 (pIC50)/NHA; for Caco-2 LLE: LLE = pIC50–cLog P; for Morphological alterations of treated Caco-2 cells: microscopic examination after 72 h, compared to untreated and 5-FU-treated cells; for Caco-2 SI: ratio of IC50 against normal cells (Wi-38) to IC50 against Caco-2
Protocol: as §6, §7
(§8) Wi-38 cell line was cultured in DMEM medium-contained 10% fetal bovine serum (FBS), seeded as 5x10^3 cells per well in 96-well cell culture plate and incubated at 37 °C in 5% CO2 incubator. After 24 h for cell attachment, serial concentrations of the synthetic compounds and standard chemotherapy (5-fluorouracil) were incubated with Wi-38 cells for 72 h. Cell viability was assayed by MTT method Twenty microliters of 5 mg/ml MTT (Sigma, USA) was added to each well and the plate was incubated at 37 °C for 3 h. Then MTT solution was removed, 100 µl DMSO was added, and the absorbance of each well was measured with a microplate reader (BMG LabTech, Germany) at 570 nm. The dose (EC50 and EC100) values (at 50% and100% cell viability, respectively) of the tested compounds was estimated by the Graphpad Instat software.
(§9) The anticancer effect of the above-mentioned compounds was assayed using human colon cancer cell line (Caco-2) and liver cancer cell line (HepG-2) that were cultured in DMEM (Lonza, USA) supplemented with 10%
(§10) FBS. All cancer cells (5x10^3 cells/well) were seeded in sterile 96-well plates. After 24h, serial concentrations of the tested compounds and 5-fluorouracil (Fu) were incubated with two cancer cell lines for 72 h at 37 °C in 5% CO2 incubator. MTT method was done as described above. The half maximal inhibitory concentration (IC50) values were calculated using the Graphpad Instat software. Furthermore, cellular morphological changes before […]
(§11) contrast inverted microscope with a digital camera (Olympus, Japan).

HepG-2 cells [6] = experiment: MTT cytotoxicity assay, liver cancer cells; format: cell-based, human; conditions: for IC50: Homo sapiens, HepG2; for Morphological alterations of treated HepG-2 cells: microscopic examination after 72 h, compared to untreated and 5-FU-treated cells; for HepG-2 SI: ratio of IC50 against normal cells (Wi-38) to IC50 against HepG-2
Protocol: as §6, §7, §8, §9, §10, §11

Wi-38 cells [7] = tested on: Wi-38 cells; design: method as in PMID 30826510; conditions: MTT; previously studied nitro lead; cited from earlier work
HepG-2 cells [8] = tested on: HepG-2 cells; design: method as in PMID 30826510; conditions: previously studied nitro lead, cited from earlier work
[9] = Caco-2, -log (IC50), molar, read-out: Caco-2 IC50 (converted)
[10] = Caco-2, MTT, 72 h, mean ± SEM, read-out: Caco-2 IC50 (converted)
[11] = Caco-2 and HepG-2 cells, MTT, read-out: IC50 against the screened cell lines
[12] = MTT, 72 h, mean ± SEM, read-out: HepG-2 IC50
[13] = read-out: HepG-2 pIC50 (converted)

Row | Compound | % Apoptosis (total apoptotic cell population) (Caco-2 cells [1]) | Relative fold increment in caspase 3/7 activity, Caco-2 (caspase-3/7 [2]) | Bcl2 gene relative fold change (Bcl2) | MNTC (Wi-38 cells [3]) | IC50 (Wi-38 cells [3]) | Relative fold increment in caspase 3/7 activity, HepG-2 (caspase-3/7 [4]) | SI against the screened cell lines (Caco-2 cells [5]) | IC50 (Caco-2 cells [5]; [9]) | IC50 (Caco-2 cells [5]; [10]) | IC50 (Caco-2 cells [5]; [11]) | Caco-2 LE (Caco-2 cells [5]) | Caco-2 LLE (Caco-2 cells [5]) | Morphological alterations of treated Caco-2 cells (Caco-2 cells [5]) | Caco-2 SI (Caco-2 cells [5]) | IC50 (HepG-2 cells [6]; [12]) | IC50 (HepG-2 cells [6]; [13]) | Morphological alterations of treated HepG-2 cells (HepG-2 cells [6]) | HepG-2 SI (HepG-2 cells [6]) | also measured
1 | CCOC(=O)c1ccc(NC(=O)C2(OC(=O)Cc3c[nH]c4ccccc34)CCCCC2)cc1 [7a, Ethyl-4-(1-(2-(1H-indol-3-yl)acetoxy)cyclohexanecarboxamido)benzoate] | 50.9% and 50.905 ± 5.975% | 3.086 ± 0.038 fold | 0.471 ± 0.051 fold | 2980 ± 640 nM | 11200 ± 3750 nM | 2.938 ± 0.063 fold | 97–243 | 88.1 nM | 88 ± 10 nM | 70 to 120 nM | 0.292 | 4.025 | severe shrinkage and morphological alterations | 127.215 | 115 ± 16 nM | 115 nM | severe shrinkage and morphological alterations | 97.347 | 
2 | CCOC(=O)c1ccc(NC(=O)C2(OC(=O)[C@H](Cc3ccccc3)NC(=O)Oc3ccccc3)CCCCC2)cc1 [7j, Ethyl-4-(1-((2-((phenoxycarbonyl)amino)-3-phenylpropanoyl)oxy)cyclohexanecarboxamido) benzoate] | 52.6% and 52.650 ± 5.310% | 3.586 ± 0.098 fold | 0.127 ± 0.009 fold | 1770 ± 694 nM | 16800 ± 637 nM | 2.960 ± 0.065 fold | 97–243 | 69 nM | 69 ± 6 nM | 70 to 120 nM | 0.239 | 3.461 | severe shrinkage and morphological alterations | 242.956 | 87 ± 7 nM | 87.1 nM | severe shrinkage and morphological alterations | 192.689 | 
3 | O=C(Cc1ccccc1)OC1(C(=O)Nc2ccc([N+](=O)[O-])cc2)CCCCC1 [V] |  |  |  |  |  |  |  |  |  |  |  |  |  |  |  |  |  |  | IC50 (Wi-38 cells [7]): 44 nM; IC50 (HepG-2 cells [8]; MTT): 14 nM; SI (HepG-2) (HepG-2 cells [8]; Wi-38 vs HepG-2): 3.091
